Patent publication US7741479B2, “Urea inhibitors of MAP kinases” (Locus Pharmaceuticals, Inc., priority 2004, dated 2010)

Biological target: T1, p38 (Homo sapiens, UniProt Q16539)
T1 construct: made in house
Assay: Protein Kinase Assay (33P incorporation from γ-[33P]ATP into GST-ATF-2 substrate)
Assay type: biochemical
Conditions: compound at 3 μM; read-out: Protein Kinase (% Inhibition at 3 μM)
Description: Human non-activated p38 kinase (MW=43 kDa) was purified according to the protocol described herein. Chemicals were purchased from Calbiochem. Fluorescence characterizations were conducted using a Cary Eclipse (Varian Analytical Instruments, Walnut Creek, Calif.). Research-grade CM5 sensor chips and coupling reagents (N-ethyl-N′-dimethylaminopropylcarbodiimide (EDC) N-hydroxysuccinimide (NHS), and 1 M ethanolamine HCl, pH 8.5) were purchased from Biacore AB (Uppsala, Sweden). The biosensor analyses were conducted using a Biacore 3000 SPR instrument. The kinetic analyses were carried on a Molecular Devices spectrophotometer (Molecular Devices Corporation, CA, USA).
Protein Kinase Assay. The protein kinase activity of p38 was determined by measuring the incorporation of ^33P from γ-[^33P]ATP into the GST-ATF-2 substrate, amino acids 19-96 (Upstate, NY USA). […] Compounds were preincubated with 10 nM p38 for 20 min at 30° C.; the reactions were initiated by the addition of GST-ATF2 and ATP and incubated for 70 min at 30° C. before being stopped by the addition of 10 μL of 600 mM phosphoric acid. The phosphorylated substrate was captured on phosphocellulose 96-well plate (Millipore MAPHNOB 10), washed with 100 mM phosphoric acid, and counted in a BeckmenCoulter LS6500 liquid scintillation counter.

T1 sequence (Q16539 whole entry): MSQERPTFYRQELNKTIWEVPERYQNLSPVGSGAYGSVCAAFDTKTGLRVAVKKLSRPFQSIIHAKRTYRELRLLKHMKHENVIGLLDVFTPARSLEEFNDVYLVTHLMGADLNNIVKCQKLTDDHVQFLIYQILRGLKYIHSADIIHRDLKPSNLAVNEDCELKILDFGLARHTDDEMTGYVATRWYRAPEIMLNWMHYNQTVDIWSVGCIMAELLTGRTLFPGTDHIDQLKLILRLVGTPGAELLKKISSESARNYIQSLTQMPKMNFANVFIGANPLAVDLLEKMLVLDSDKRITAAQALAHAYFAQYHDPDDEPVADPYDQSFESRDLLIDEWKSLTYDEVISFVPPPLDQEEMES

inhibition at 3 µM [%]	SMILES
76 to 100	CC(C)(C)c1cc(C(=O)N2CCNS(=O)(=O)CC2)c(NC(=O)Nc2ccc(C#N)c3ccccc23)s1 [Example 56, 1-[5-tert-butyl-3-(1,1-dioxo-1λ^6-[1,2,5]thiadiazepane-5-carbonyl)thiophen-2-yl]-3-(4-cyanonaphthalen-1-yl)urea]
76 to 100	CC(C)(C)c1cc(C(=O)N2CCNC(=O)C2)c(NC(=O)Nc2ccc(C#N)c3ccccc23)s1 [Example 57, 1-[5-tert-butyl-3-(3-oxopiperazine-1-carbonyl)thiophen-2-yl]-3-(4-cyano-naphthalen-1-yl)urea]
76 to 100	CC(C)(C)c1cc(C(=O)N2CCS(=O)(=O)CC2)c(NC(=O)Nc2cccc(Cl)c2Cl)s1 [Example 58, 1-[5-tert-butyl-3-(1,1-dioxo-1λ^6-thiomorpholine-4-carbonyl)thiophen-2-yl]-3-(2,3-dichlorophenyl)urea]
76 to 100	CC(C)(C)c1cc(C(=O)N2CCS(=O)(=O)CC2)c(NC(=O)Nc2cccc(Cl)c2)s1 [Example 59, 1-[5-tert-butyl-3-(1,1-dioxo-1λ^6-thiomorpholine-4-carbonyl)thiophen-2-yl]-3-(3-chlorophenyl)urea]
76 to 100	CC(C)(C)c1cc(C(=O)N2CCS(=O)(=O)CC2)c(NC(=O)Nc2ccc3c(c2)OCO3)s1 [Example 60, 1-Benzo[1,3]dioxol-5-yl-3-[5-tert-butyl-3-(1,1-dioxo-1λ^6-thiomorpholine-4-carbonyl)thiophen-2-yl]urea]
76 to 100	CC(C)(C)c1cc(C(=O)N2CCS(=O)(=O)CC2)c(NC(=O)Nc2ccc3c(c2)OC(F)(F)O3)s1 [Example 61, 1-[5-tert-butyl-3-(1,1-dioxo-1λ^6-thiomorpholine-4-carbonyl)thiophen-2-yl]-3-(2,2-difluorobenzo[1,3]dioxol-5-yl)urea]
76 to 100	COc1ccc(NC(=O)Nc2sc(C(C)(C)C)cc2C(=O)N2CCS(=O)(=O)CC2)cc1Cl [Example 62, 1-[5-tert-butyl-3-(1,1-dioxo-1λ^6-thiomorpholine-4-carbonyl)thiophen-2-yl]-3-(3-chloro-4-methoxyphenyl)urea]
76 to 100	CC(C)(C)c1cc(C(=O)N2CCS(=O)(=O)CC2)c(NC(=O)Nc2ccc(Cl)c(Cl)c2)s1 [Example 63, 1-[5-tert-butyl-3-(1,1-dioxo-1λ^6-thiomorpholine-4-carbonyl)thiophen-2-yl]-3-(3,4-dichlorophenyl)urea]
0 to 25	CC(C)(C)c1cc(C(=O)N2CCS(=O)(=O)CC2)c(NC(=O)NC(C)(C)c2ccccc2)s1 [Example 66, 1-[5-tert-butyl-3-(1,1-dioxo-1λ^6-thiomorpholine-4-carbonyl)thiophen-2-yl]-3-(1-methyl-1-phenylethyl)urea]
76 to 100	Cc1cccc(NC(=O)Nc2sc(C(C)(C)C)cc2C(=O)N2CCS(=O)(=O)CC2)c1 [Example 67, 1-[5-tert-butyl-3-(1,1-dioxo-1λ^6-thiomorpholine-4-carbonyl)thiophen-2-yl]-3-(3-tolyl)urea]
76 to 100	CC(C)(C)c1cc(C(=O)N2CCS(=O)(=O)CC2)c(NC(=O)Nc2cc(Cl)cc(Cl)c2)s1 [Example 68, 1-[5-tert-butyl-3-(1,1-dioxo-1λ^6-thiomorpholine-4-carbonyl)thiophen-2-yl]-3-(3,5-dichlorophenyl)urea]
0 to 25	Cn1ccc(NC(=O)Nc2sc(C(C)(C)C)cc2C(=O)N2CCS(=O)(=O)CC2)n1 [Example 69, 1-[5-tert-butyl-3-(1,1-dioxo-1λ^6-thiomorpholine-4-carbonyl)thiophen-2-yl]-3-(1-methyl-1H-pyrazol-3-yl)urea]
26 to 50	Cc1cc(NC(=O)Nc2sc(C(C)(C)C)cc2C(=O)N2CCS(=O)(=O)CC2)cc(C)n1 [Example 70, 1-[5-tert-butyl-3-(1,1-dioxo-1λ^6-thiomorpholine-4-carbonyl)thiophen-2-yl]-3-(2,6-dimethylpyridin-4-yl)urea]
76 to 100	CC(C)(C)c1cc(C(=O)N2CCS(=O)(=O)CC2)c(NC(=O)Nc2ccc3ocnc3c2)s1 [Example 71, 1-Benzoxazol-5-yl-3-[5-tert-butyl-3-(1,1-dioxo-1λ^6-thiomorpholine-4-carbonyl)thiophen-2-yl]urea]
76 to 100	CC(C)(C)c1cc(C(=O)N2CCS(=O)(=O)CC2)c(NC(=O)Nc2ccc3ncoc3c2)s1 [Example 72, 1-Benzoxazol-6-yl-3-[5-tert-butyl-3-(1,1-dioxo-1λ^6-thiomorpholine-4-carbonyl)thiophen-2-yl]urea]
76 to 100	CC(C)(C)c1cc(C(=O)N2CCNC(=O)CC2)c(NC(=O)Nc2ccc3c(c2)OCO3)s1 [Example 73, 1-Benzo[1,3]dioxol-5-yl-3-[5-tert-butyl-3-(5-oxo-[1,4]diazepane-1-carbonyl)-thiophen-2-yl]urea]
76 to 100	CC(C)(C)c1cc(C(=O)N2CCNC(=O)CC2)c(NC(=O)Nc2ccc3c(c2)OC(F)(F)O3)s1 [Example 74, 1-[5-tert-butyl-3-(5-oxo-[1,4]diazepane-1-carbonyl)-thiophen-2-yl]-3-(2,2-difluoro-benzo[1,3]dioxol-5-yl)urea]
76 to 100	CC(C)(C)c1cc(C(=O)Nc2cccnc2)c(NC(=O)Nc2ccc(Cl)cc2)s1 [Example 75, 1-(3-(Pyridin-3-ylcarbamoyl)-5-tert-butylthiophen-2-yl)-3-(4-chlorophenyl)urea]
76 to 100	CC(C)(C)c1cc(C(=O)N2CCS(=O)(=O)CC2)c(NC(=O)Nc2ccc(C#N)cc2Cl)s1 [Example 76, 1-[5-tert-butyl-3-(1,1-dioxo-1λ^6-thiomorpholine-4-carbonyl)thiophen-2-yl]-3-(2-chloro-4-cyanophenyl)urea]
26 to 50	CC(C)(C)c1cc(C(=O)N2CCS(=O)(=O)CC2)c(NC(=O)NC2(c3ccccc3)CC2)s1 [Example 77, 1-[5-tert-butyl-3-(1,1-dioxo-1λ^6-thiomorpholine-4-carbonyl)thiophen-2-yl]-3-(1-phenylcyclopropyl)urea]
76 to 100	CC1C(=O)NCCN1C(=O)c1cc(C(C)(C)C)sc1NC(=O)Nc1ccc(Cl)cc1 (centres unmarked) [Example 78, 1-[5-tert-butyl-3-(2-methyl-3-oxopiperazine-1-carbonyl)thiophen-2-yl]-3-(4-chlorophenyl)urea]
76 to 100	CC(C)(C)c1nc(C(=O)N2CCNS(=O)(=O)CC2)c(NC(=O)Nc2cccc3ccccc23)s1 [Example 80, 1-[2-tert-butyl-4-(1,1-dioxo-1λ^6-[1,2,5]thiadiazepane-5-carbonyl)thiazol-5-yl]-3-naphthalen-1-ylurea]
76 to 100	CN(CCS(C)(=O)=O)C(=O)c1cc(C(C)(C)C)sc1NC(=O)Nc1cccc2ccccc12 [Example 82, 1-(3-(N-methyl-N-(2-(methylsulfonyl)ethyl)carbamoyl)-5-tert-butylthiophen-2-yl)-3-(naphthalen-1-yl)urea]
76 to 100	CC(C)(C)c1nc(C(=O)N2CCNC(=O)C2)c(NC(=O)Nc2cccc3ccccc23)s1 [Example 83, 1-[2-tert-butyl-4-(3-oxopiperazine-1-carbonyl)thiazol-5-yl]-3-naphthalen-1-ylurea]
76 to 100	CC(C)(C)c1cc(C(=O)N2CCS(=O)(=O)CC2)c(NC(=O)Nc2ccc(C#N)cc2C(F)(F)F)s1 [Example 84, 1-[5-tert-butyl-3-(1,1-dioxo-1λ^6-thiomorpholine-4-carbonyl)thiophen-2-yl]-3-(4-cyano-2-trifluoromethylphenyl)urea]
26 to 50	CC(C)(C)c1cc(C(=O)N2CCS(=O)(=O)CC2)c(NC(=O)Nc2cnc(O)c3ccccc23)s1 [Example 85, 1-[5-tert-butyl-3-(1,1-dioxo-1λ^6-thiomorpholine-4-carbonyl)thiophen-2-yl]-3-(1-hydroxyisoquinolin-4-yl)urea]
76 to 100	CC(C)(C)c1cc(C(=O)N[C@H]2CC(=O)NC2=O)c(NC(=O)Nc2cccc3ccccc23)s1 [Example 86]
76 to 100	CC1C(=O)NCCN1C(=O)c1cc(C(C)(C)C)sc1NC(=O)Nc1cccc2ccccc12 (centres unmarked) [Example 87, 1-[5-tert-butyl-3-(2-methyl-3-oxopiperazine-1-carbonyl)thiophen-2-yl]-3-naphthalen-1-ylurea]
76 to 100	COC(=O)CC1C(=O)NCCN1C(=O)c1cc(C(C)(C)C)sc1NC(=O)Nc1cccc2ccccc12 (centres unmarked) [Example 88, {1-[5-tert-butyl-2-(3-naphthalen-1-yl-ureido)thiophene-3-carbonyl]-3-oxo-piperazin-2-yl}-acetic acid methyl ester]
76 to 100	CC(C)(C)c1cc(C(=O)N2CCNC(=O)CC2)c(NC(=O)Nc2ccc(C#N)cc2C(F)(F)F)s1 [Example 89, 1-[5-tert-butyl-3-(5-oxo-[1,4]diazepane-1-carbonyl)thiophen-2-yl]-3-(4-cyano-2-trifluoromethylphenyl)urea]

SMILES	inhibition at 3 µM [%]
CC(C)(C)c1cc(C(=O)N2CCS(=O)(=O)CC2)c(NC(=O)Nc2ccc(C#N)c(Cl)c2)s1 [Example 64, 1-[5-tert-butyl-3-(1,1-dioxo-1λ^6-thiomorpholine-4-carbonyl)thiophen-2-yl]-3-(3-chloro-4-cyanophenyl)urea]	51 to 75
CC(C)(C)c1cc(C(=O)N2CCS(=O)(=O)CC2)c(NC(=O)Nc2ccc(C#N)c(C(F)(F)F)c2)s1 [Example 65, 1-[5-tert-butyl-3-(1,1-dioxo-1λ^6-thiomorpholine-4-carbonyl)thiophen-2-yl]-3-(4-cyano-3-trifluoromethylphenyl)urea]	26 to 50
